Measurements published in PubChem BioAssay AID2060601 (Molecular Pharmacology Branch, DTP, NCI, 2025).

Test system: 874868-142-R-J2-PDC complex spheroids, growth % test/control
Test: Anticancer human tumor 874868-142-R-J2-PDC patient-derived head and neck squamous carcinoma cell line growth inhibition [CLK]
Conditions: for IC50: curve of first compound; for viability, T/C: stronger effect = lower value
How it was run: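 Multi-cell-type spheroids combined patient-derived tumor cells with HUVEC endothelial cells and human mesenchymal stem cells. Paired agents were dosed in half-log steps down from about clinical Cmax, or from 10 microM where Cmax was unknown.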

[1] = second compound 0.0316 µM, first compound 0.00949 µM
[2] = second compound 0.0316 µM, first compound 0.03 µM
[3] = second compound 0.0316 µM, first compound 0.0949 µM
[4] = second compound 0.0316 µM, first compound 0.3 µM
[5] = second compound 0.1 µM, first compound 0.00949 µM
[6] = second compound 0.1 µM, first compound 0.03 µM
[7] = second compound 0.1 µM, first compound 0.0949 µM
[8] = second compound 0.1 µM, first compound 0.3 µM
[9] = second compound 0.316 µM, first compound 0.00949 µM
[10] = second compound 0.316 µM, first compound 0.03 µM
[11] = second compound 0.316 µM, first compound 0.0949 µM
[12] = second compound 0.316 µM, first compound 0.3 µM
[13] = second compound 1 µM, first compound 0.00949 µM
[14] = second compound 1 µM, first compound 0.03 µM
[15] = second compound 1 µM, first compound 0.0949 µM
[16] = second compound 1 µM, first compound 0.3 µM
[17] = second compound 3.16 µM, first compound 0.00949 µM
[18] = second compound 3.16 µM, first compound 0.03 µM
[19] = second compound 3.16 µM, first compound 0.0949 µM
[20] = second compound 3.16 µM, first compound 0.3 µM
[21] = second compound 10 µM, first compound 0.00949 µM
[22] = second compound 10 µM, first compound 0.03 µM
[23] = second compound 10 µM, first compound 0.0949 µM
[24] = second compound 10 µM, first compound 0.3 µM
[25] = second compound 0.0316 µM, first compound 0.0316 µM
[26] = second compound 0.0316 µM, first compound 0.1 µM
[27] = second compound 0.0316 µM, first compound 0.316 µM
[28] = second compound 0.0316 µM, first compound 1 µM
[29] = second compound 0.0316 µM, first compound 3.16 µM
[30] = second compound 0.0316 µM, first compound 10 µM
[31] = second compound 0.1 µM, first compound 0.0316 µM
[32] = second compound 0.1 µM, first compound 0.1 µM
[33] = second compound 0.1 µM, first compound 0.316 µM
[34] = second compound 0.1 µM, first compound 1 µM
[35] = second compound 0.1 µM, first compound 3.16 µM
[36] = second compound 0.1 µM, first compound 10 µM
[37] = second compound 0.316 µM, first compound 0.0316 µM
[38] = second compound 0.316 µM, first compound 0.1 µM
[39] = second compound 0.316 µM, first compound 0.316 µM
[40] = second compound 0.316 µM, first compound 1 µM
[41] = second compound 0.316 µM, first compound 3.16 µM
[42] = second compound 0.316 µM, first compound 10 µM
[43] = second compound 1 µM, first compound 0.0316 µM
[44] = second compound 1 µM, first compound 0.1 µM
[45] = second compound 1 µM, first compound 0.316 µM
[46] = second compound 1 µM, first compound 1 µM
[47] = second compound 1 µM, first compound 3.16 µM
[48] = second compound 1 µM, first compound 10 µM
[49] = second compound 3.16 µM, first compound 0.0316 µM
[50] = second compound 3.16 µM, first compound 0.1 µM
[51] = second compound 3.16 µM, first compound 0.316 µM
[52] = second compound 3.16 µM, first compound 1 µM
[53] = second compound 3.16 µM, first compound 3.16 µM
[54] = second compound 3.16 µM, first compound 10 µM
[55] = second compound 10 µM, first compound 0.0316 µM
[56] = second compound 10 µM, first compound 0.1 µM
[57] = second compound 10 µM, first compound 0.316 µM
[58] = second compound 10 µM, first compound 1 µM
[59] = second compound 10 µM, first compound 3.16 µM
[60] = second compound 10 µM, first compound 10 µM
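Also: spheroids exposed to the compounds for 7 days.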
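For viability, T/C in this document: 100% = DMSO vehicle control viability.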

Structure (SMILES): CC(C)CC(NC(=O)C(Cc1ccccc1)NC(=O)c1cnccn1)B(O)O (stereo not drawn) + CN1CCN(c2cc(C(=O)Nc3cc4cc(-c5cnn(C)c5)ccc4cn3)ccn2)CC1
- IC50 (second compound 0.0316 µM): 4.88 nM
- IC50 (second compound 0.1 µM): 4.5 nM
- IC50 (second compound 0.316 µM): < 0.949 nM
- IC50 (second compound 1 µM): < 0.949 nM
- IC50 (second compound 3.16 µM): < 0.949 nM
- IC50 (second compound 10 µM): < 0.949 nM
- viability, T/C (second compound 0.0316 µM, first compound 0.000949 µM): 79.4%
- viability, T/C (second compound 0.0316 µM, first compound 0.003 µM): 91.5%
- viability, T/C [1]: 1.41%
- viability, T/C [2]: 0.55%
- viability, T/C [3]: 0.23%
- viability, T/C [4]: 0.27%
- viability, T/C (second compound 0.1 µM, first compound 0.000949 µM): 68.9%
- viability, T/C (second compound 0.1 µM, first compound 0.003 µM): 83.1%
- viability, T/C [5]: 2.27%
- viability, T/C [6]: 0.42%
- viability, T/C [7]: 0.14%
- viability, T/C [8]: 0.34%
- viability, T/C (second compound 0.316 µM, first compound 0.000949 µM): 20.8%
- viability, T/C (second compound 0.316 µM, first compound 0.003 µM): 14.3%
- viability, T/C [9]: 0.46%
- viability, T/C [10]: 0.14%
- viability, T/C [11]: 0.13%
- viability, T/C [12]: 0.15%
- viability, T/C (second compound 1 µM, first compound 0.000949 µM): 0.31%
- viability, T/C (second compound 1 µM, first compound 0.003 µM): 0.22%
- viability, T/C [13]: 1.17%
- viability, T/C [14]: 0.2%
- viability, T/C [15]: 0.1%
- viability, T/C [16]: 0.14%
- viability, T/C (second compound 3.16 µM, first compound 0.000949 µM): 0.33%
- viability, T/C (second compound 3.16 µM, first compound 0.003 µM): 0.27%
- viability, T/C [17]: 0.28%
- viability, T/C [18]: 0.14%
- viability, T/C [19]: 0.4%
- viability, T/C [20]: 0.25%
- viability, T/C (second compound 10 µM, first compound 0.000949 µM): 0.09%
- viability, T/C (second compound 10 µM, first compound 0.003 µM): 3.32%
- viability, T/C [21]: 3.67%
- viability, T/C [22]: 0.13%
- viability, T/C [23]: 0.18%
- viability, T/C [24]: 0.22%

Structure (SMILES): CC1(C)CCC(CN2CCN(c3ccc(C(=O)NS(=O)(=O)c4ccc(NCC5CCOCC5)c([N+](=O)[O-])c4)c(Oc4cnc5[nH]ccc5c4)c3)CC2)=C(c2ccc(Cl)cc2)C1 + CN1CCN(c2cc(C(=O)Nc3cc4cc(-c5cnn(C)c5)ccc4cn3)ccn2)CC1
- IC50 (second compound 0.0316 µM): > 10000 nM
- IC50 (second compound 0.1 µM): > 10000 nM
- IC50 (second compound 0.316 µM): < 31.6 nM
- IC50 (second compound 1 µM): < 31.6 nM
- IC50 (second compound 3.16 µM): < 31.6 nM
- IC50 (second compound 10 µM): < 31.6 nM
- viability, T/C [25]: 72.6%
- viability, T/C [26]: 90.4%
- viability, T/C [27]: 69.6%
- viability, T/C [28]: 96.1%
- viability, T/C [29]: 76.6%
- viability, T/C [30]: 70%
- viability, T/C [31]: 77.6%
- viability, T/C [32]: 69.9%
- viability, T/C [33]: 67.1%
- viability, T/C [34]: 75.9%
- viability, T/C [35]: 47.2%
- viability, T/C [36]: 58.9%
- viability, T/C [37]: 20.8%
- viability, T/C [38]: 17.6%
- viability, T/C [39]: 17%
- viability, T/C [40]: 18.8%
- viability, T/C [41]: 12.8%
- viability, T/C [42]: 11.3%
- viability, T/C [43]: 0.46%
- viability, T/C [44]: 4.39%
- viability, T/C [45]: 0.38%
- viability, T/C [46]: 0.29%
- viability, T/C [47]: 0.25%
- viability, T/C [48]: 0.25%
- viability, T/C [49]: 0.23%
- viability, T/C [50]: 0.22%
- viability, T/C [51]: 0.22%
- viability, T/C [52]: 0.13%
- viability, T/C [53]: 0.22%
- viability, T/C [54]: 0.19%
- viability, T/C [55]: 0.13%
- viability, T/C [56]: 3.51%
- viability, T/C [57]: 1.25%
- viability, T/C [58]: 0.25%
- viability, T/C [59]: 0.17%
- viability, T/C [60]: 1.58%

Structure (SMILES): CC1COCCN1c1cc(C2(S(C)(=N)=O)CC2)nc(-c2ccnc3[nH]ccc23)n1 (stereo not drawn) + CN1CCN(c2cc(C(=O)Nc3cc4cc(-c5cnn(C)c5)ccc4cn3)ccn2)CC1
- IC50 (second compound 0.0316 µM): 1900 nM
- IC50 (second compound 0.1 µM): 578 nM
- IC50 (second compound 0.316 µM): < 31.6 nM
- IC50 (second compound 1 µM): < 31.6 nM
- IC50 (second compound 3.16 µM): < 31.6 nM
- IC50 (second compound 10 µM): < 31.6 nM
- viability, T/C [25]: 87.7%
- viability, T/C [26]: 82.5%
- viability, T/C [27]: 71.3%
- viability, T/C [28]: 73.5%
- viability, T/C [29]: 31.2%
- viability, T/C [30]: 27.6%
- viability, T/C [31]: 68.9%
- viability, T/C [32]: 60.9%
- viability, T/C [33]: 59.3%
- viability, T/C [34]: 42%
- viability, T/C [35]: 20.8%
- viability, T/C [36]: 20.9%
- viability, T/C [37]: 16.6%
- viability, T/C [38]: 19.8%
- viability, T/C [39]: 18.4%
- viability, T/C [40]: 10.8%
- viability, T/C [41]: 13.7%
- viability, T/C [42]: 7.51%
- viability, T/C [43]: 0.41%
- viability, T/C [44]: 0.3%
- viability, T/C [45]: 0.49%
- viability, T/C [46]: 0.28%
- viability, T/C [47]: 0.29%
- viability, T/C [48]: 0.24%
- viability, T/C [49]: 0.19%
- viability, T/C [50]: 0.25%
- viability, T/C [51]: 0.22%
- viability, T/C [52]: 0.29%
- viability, T/C [53]: 1.32%
- viability, T/C [54]: 0.36%
- viability, T/C [55]: 5.76%
- viability, T/C [56]: 0.21%
- viability, T/C [57]: 1.83%
- viability, T/C [58]: 0.21%
- viability, T/C [59]: 0.21%
- viability, T/C [60]: 0.23%

Structure (SMILES): NC(=O)C(=Cn1cnc(-c2cc(C(F)(F)F)cc(C(F)(F)F)c2)n1)c1cncnc1 + CN1CCN(c2cc(C(=O)Nc3cc4cc(-c5cnn(C)c5)ccc4cn3)ccn2)CC1
- IC50 (second compound 0.0316 µM): 51.3 nM
- IC50 (second compound 0.1 µM): < 9.49 nM
- IC50 (second compound 0.316 µM): < 9.49 nM
- IC50 (second compound 1 µM): < 9.49 nM
- IC50 (second compound 3.16 µM): < 9.49 nM
- IC50 (second compound 10 µM): < 9.49 nM
- viability, T/C [1]: 69.8%
- viability, T/C [2]: 62.5%
- viability, T/C [3]: 35.4%
- viability, T/C [4]: 20.1%
- viability, T/C (second compound 0.0316 µM, first compound 0.949 µM): 1.73%
- viability, T/C (second compound 0.0316 µM, first compound 3 µM): 2.54%
- viability, T/C [5]: 50%
- viability, T/C [6]: 44.8%
- viability, T/C [7]: 25.2%
- viability, T/C [8]: 3.61%
- viability, T/C (second compound 0.1 µM, first compound 0.949 µM): 0.81%
- viability, T/C (second compound 0.1 µM, first compound 3 µM): 0.34%
- viability, T/C [9]: 14%
- viability, T/C [10]: 5.04%
- viability, T/C [11]: 0.53%
- viability, T/C [12]: 0.23%
- viability, T/C (second compound 0.316 µM, first compound 0.949 µM): 0.23%
- viability, T/C (second compound 0.316 µM, first compound 3 µM): 0.1%
- viability, T/C [13]: 0.37%
- viability, T/C [14]: 0.25%
- viability, T/C [15]: 0.32%
- viability, T/C [16]: 0.28%
- viability, T/C (second compound 1 µM, first compound 0.949 µM): 0.22%
- viability, T/C (second compound 1 µM, first compound 3 µM): 1.66%
- viability, T/C [17]: 0.39%
- viability, T/C [18]: 0.31%
- viability, T/C [19]: 0.46%
- viability, T/C [20]: 0.38%
- viability, T/C (second compound 3.16 µM, first compound 0.949 µM): 0.19%
- viability, T/C (second compound 3.16 µM, first compound 3 µM): 0.14%
- viability, T/C [21]: 0.14%
- viability, T/C [22]: 0.14%
- viability, T/C [23]: 3.64%
- viability, T/C [24]: 0.17%
- viability, T/C (second compound 10 µM, first compound 0.949 µM): 0.24%
- viability, T/C (second compound 10 µM, first compound 3 µM): 0.2%
